# Experiments:
# Format in all cases: cell-based
# glioblastoma cell lines = assay: 6-day cell survival assay (Cell Titer Glo 2.0), glioblastoma cell lines; conditions: 6-day treatment
# Method: Cell survival assays (FIGS. 12-19) were performed in 96-well plates in technical duplicates. Treatments started 24 hours post cell plating and lasted for 6-days prior to cell viability assessment with the Cell Titer Glo 2.0 Luminescent assay (Promega, G9242).
# [1] = system: human primary glioblastoma cell lines; assay: Survival of artemisinin treated primary human glioblastoma cells upon 5-ALA (CellTiter-Glo, 72 h); conditions: three independently derived human primary glioblastoma cell lines
# Method: […] Cell viability was assessed using automated cell counting (high-throughput flow cytometry), Alamar Blue staining (Invitrogen, DAL1100) or CellTiter-Glo Luminescent Assay (Promega, G7570, according to the manufacturer’s protocol) respectively.
# [2] = system: neuroblastoma cells (SHSY5Y), Jurkat cells; assay: Cell survival by automated cell counting in SHSY5Y and Jurkat cells; conditions: artemisinin 0.5 µM, 5-ALA 0.25 mM
# Method: For dosage responses, cells were seeded in 96-wells (25.000/ 96-well, in triplicate -where indicated) and subjected to compounds for 48 h. Cell viability was assessed using automated cell counting (high-throughput flow cytometry), Alamar Blue staining (Invitrogen, DAL1100) or CellTiter-Glo Luminescent Assay (Promega, G7570, according to the manufacturer’s protocol) respectively.
# [3] = system: human glioblastoma-like neoplastic organoid model; assay: Compound profiling in human glioblastoma-like neoplastic organoid model (p53, NF1, PTEN mutated); conditions: compound alone
# Method: Tumor initiation was induced by either oncogene amplification, using a Sleeping Beauty (SB) transposase, or mutation of tumor suppressor genes, using the CRISPR-Cas9 system in day 10 old embryoid bodies (EBs). Plasmids carrying the transposase as well as GFP and the desired oncogenes or expressing Cas9 nuclease were introduced by electroporation. In brief, a mixture of 1 μg DNA and 100 μl nucleofector solution was added to 10 EBs and transferred to a nucleofection cuvette. The Lonza Nucleofector 2b and the A-023 program were used for electroporation/ nucleofection. […] Cerebral tumor organoids were treated with different compounds and the survival and growth of transformed as well as untransformed neurons was monitored. Fluorescence labeling of tumor cells allowed clear distinguishability of transformed cells as compared to non-labeled throughout the experiment using brightfield microscopy, as well as fluorescence imaging. The transformed tumor tissue and untransformed neurons within the same organoid was monitored using fluorescence imaging, as well as brightfield microscopy throughout the experiment. At the endpoint of the treatment (d5 or d7 respectively), the number of GFP-positive cells was assessed by flow cytometry. […] Brightfield and green fluorescence images were taken from the same area. […]
# [4] = system: human cerebral tumor organoids (CNS-PNET); assay: Compound profiling in CNS-PNET cerebral tumor organoids (GFP-positive tumor cells)
# Method: Tumor initiation was induced by either oncogene amplification, using a Sleeping Beauty (SB) transposase, or mutation of tumor suppressor genes, using the CRISPR-Cas9 system in day 10 old embryoid bodies (EBs). Plasmids carrying the transposase as well as GFP and the desired oncogenes or expressing Cas9 nuclease were introduced by electroporation. In brief, a mixture of 1 μg DNA and 100 μl nucleofector solution was added to 10 EBs and transferred to a nucleofection cuvette. The Lonza Nucleofector 2b and the A-023 program were used for electroporation/ nucleofection. Thereafter, EBs were transferred into 10 cm dishes containing differentiation media containing vitamin A and embedded into Matrigel 24 hours later. Two different types of tumors were initiated {Bian:2018gs}: Central nervous system primitive neuroectodermal tumors (CNS-PNET) were induced by the overexpression of Myc. Glioblastoma-like tumor group 2 (GBM-2) was caused by mutagenesis of the tumor suppressor genes p53, NF1 and PTEN. All plasmids were designed by Shan Bian {Bian, S. et al. Genetically engineered cerebral organoids model brain tumor formation. Nat. Methods 15, 631-639 (2018)}. Cerebral tumor organoids were treated with different compounds and the survival and growth of transformed as well as untransformed neurons was monitored. Fluorescence labeling of tumor cells allowed clear distinguishability of transformed cells as compared to non-labeled throughout the experiment using brightfield microscopy, as well as fluorescence imaging. The transformed tumor tissue and untransformed neurons within the same organoid was monitored using fluorescence imaging, as well as brightfield microscopy throughout the experiment. At the endpoint of the treatment (d5 or d7 respectively), the number of GFP-positive cells was assessed by flow cytometry. Cerebral (tumor) organoids were enzymatically and mechanically dissociated using 1x trypsin, 35-45 min incubation at 37° C., and gentle shaking. […] Single cells in suspension were counterstained with DAPI or a viability dye (eBioscienceTM Fixable Viability Dye eFluorTM 780, 65-0865-18), and analysed using flow cytometry (BD LSRFortessa HTS Cell Analyzer). The amounts of GFP-positive cells were analyzed. […] Brightfield and green fluorescence images were taken from the same area. Additionally, for image analyses, the Celldiscoverer 7 (Zeiss), a fully integrated high-end automated live cell imaging system, was used. Cerebral organoids were fixed in 4% PFA (room temperature, 1 h), incubated with 30% sucrose (4° C., o/n), OCT (Tissue-tek OCT Compound, […], 4583) embedded and 20 μm sections were cryostat cut (-12/-14° C.). […] Fluorescence Mounting Medium (Dako, S302380) was used for mounting the sample slides. […]
smiles,measurement,setting,value
"NCC(=O)CCC(=O)O [5-ALA, 5-amino-4-oxopentanoic acid]",cell survival compared to untreated controls,glioblastoma cell lines,more potent than Methyl-5-ALA
same,sensitivity to artemisinin cytotoxicity upon 5-ALA,[1],induced artemisinin hypersensitivity to artemisinin cytotoxicity
same,cell viability / cell death,[2],slightly reduced cell viability
same,survival of untransformed and transformed cells,[3],little effect on the survival of untransformed cells as well as transformed cells
same,"GFP+ tumor tissue, immunohistochemistry of sectioned organoids",[4],losss of GFP+ tumor tissue
same,effect on non-transformed neuronal tissues in the cerebral organoids,"[4]; Sox2 expressing cells, rosette-like structures",no apparent effect on the non-transformed neuronal tissues
same,growth of GFP-positive tumor organoids,"[4]; very high concentrations, compound alone",notable growth inhibition

# — patent publication US20230121771A1, “A PHARMACEUTICAL COMBINATION OF AN ARTEMISININ COMPOUND, 5-AMINOLEVULINIC ACID OR METHYL-5-AMINOLEVULINIC ACID AND A CHEMOTHERAPEUTIC AGENT” (JLP Health GmbH, priority 2020, published 2023)
